Laboratory results taken from patent publication US7396841B2, “Injections” (Takeda Pharmaceutical Company Limited, priority 2000, dated 2008).

Experiment: Dissolution of compound A in equimolar 0.2 mol/L sodium hydroxide and appearance of aqueous preparations (Examples 1 and 2)
Assay type: physicochemical
Protocol: The resultant solutions (1 mL and 2 mL) were filled into vials to prepare injectable compositions of formulations 1 and 2 in Table 1.
In accordance with the formulation of preparation solution in Table 2, the compound A was dissolved in the equivalent amount (in molar ratio) of a sodium hydroxide aqueous solution (0.2 mol/L), and then mannitol, N-methylglucamine and a water for injection were added thereto to dissolve followed by sterile filtration with a filter (0.22 μm) made from Durapola (manufactured by Nihon Millipore Ltd.) to prepare a preparation solution for injectable composition A.

- Appearance of resultant solution (compound A in equimolar sodium hydroxide aqueous solution (0.2 mol/L)): transparent and colorless
- Dissolution of compound A (in the equivalent amount (in molar ratio) of a sodium hydroxide aqueous solution (0.2 mol/L)): quickly dissolved
Compound: Cc1c(OCC(F)(F)F)ccnc1C[S+]([O-])c1nc2ccccc2[nH]1 (centres unmarked) [Compound A, 2-[[[3-methyl-4-(2,2,2-trifluoroethoxy)-2-pyridinyl]methyl]sulfinyl]-1H-benzimidazole]
